The target in assay [1] is T1, full-length (Ec)Ffh and (Ec)FtsY-NG (Escherichia coli, UniProt P0AGD7+P10121).
T1 construct: GTPase activity of full-length (Ec)Ffh and the NG domain of (Ec)FtsY was assayed; His-tag; His6 (C); made in house; host or cells: E. coli BL21 (DE3)
The assay can be described thus: GTPase activity (GTP hydrolysis, HPLC). It counts as biochemical, E. coli. To be noted: alarmone at concentrations equimolar to the GTP substrate (1 mM) or higher; with or without 4.5S RNA, ΔEspP signal peptide, C12E8. The method, then:
GTPase activity of full-length (Ec)Ffh and the NG domain of (Ec)FtsY was assayed in a buffer containing 25 mM HEPES-K pH 7.5, 10 mM Mg(OAc)2, 300 mM K(OAc), 1 mM DTT, and 2.5% (v/v) glycerol. The samples contained 5 µM (Ec)Ffh, 5 µM (Ec)FtsY-NG, 6 µM 4.5S RNA, 5 µM ΔEspP (EspP signal peptide sequence: MKK HKR ILA LCF LGL LQS SYS WAK KKK, custom synthesized from Genosphere Biotechnologies (France)[40], and 100 µM C12E8 (octaethylenglykol-monododecylether, Sigma Aldrich)[40] as indicated in figures. Alarmones ppGpp (Jena Bioscience, ≥95% purity) or pppGpp (Jena Bioscience, ≥85% purity) were supplemented in concentrations of 10, 25, 100, 250, 1000, 2500, or 10,000 µM as indicated in the figures. The enzymatic reactions were initiated by the addition of 1 mM GTP (Jena Bioscience, ≥99% purity) and allowed to proceed for 60 min at 37 °C, after which 40 µL double-distilled water were added immediately followed by 150 µL of chloroform. […] The nucleotide content was determined by high-performance liquid chromatography (HPLC) on an Agilent 1260 Infinity system (software: ChemStation Rev. B04.03-SP1) equipped with a Metrosep A Supp 5–150/4.0 column (Metrohm). Ten microliters of sample were injected and nucleotides eluted isocratically at 0.6 mL min^−1 flow rate of 100 mM (NH4)2CO3 pH 9.25 and detected at 260 nm wavelength. […]

For the next assay, the target named is T2, Ffh-NG/FtsY-NG complex (Escherichia coli, UniProt P0AGD7+P10121, DEL297-453).
T2 construct: purified NG domains of (Ec)FtsY and (Ec)Ffh were diluted; His6 (C); made in house; host or cells: E. coli BL21 (DE3)
Put plainly: Analytical size-exclusion chromatography of GMPPNP-dependent Ffh/FtsY complex formation. It counts as biochemical, E. coli. To be noted: 0.25, 0.5 or 1 mM GMPPNP. The method, then: For the analytical SEC, purified NG domains of (Ec)FtsY and (Ec)Ffh were diluted in a buffer containing 20 mM HEPES (pH 7.5), 200 mM NaCl, 20 mM MgCl2 and 20 mM KCl to a final concentration of 100 µM (Fig. 3g) and 50 µM (Fig. 3h, i) each. Indicated amounts of nucleotides were added simultaneously, and the solution was incubated for 30 min at room temperature. 100 µL were then injected at 4 °C on to a pre-equilibrated S200 300/10 GL analytical size-exclusion column (GE Healthcare, München, Germany) on an Äkta system (UNICORN 7.6; Cytiva). Data has been plotted using GraphPad Prism (GraphPad Prism Corp. San Diego).
(Size exclusion chromatography separates by hydrodynamic size, large species first.)

[2] abbreviates: (p)ppGpp concentrations exceeding those of GMPPNP by two-fold.
Setting [3] is: at equal (p)ppGpp/GMPPNP ratios.

Results on two molecules are retold here after publication PMC8881573, “Inhibition of SRP-dependent protein secretion by the bacterial alarmone (p)ppGpp” (Nature Communications, 2022).

T2 sequence (P0AGD7 1-296, stated change not applied): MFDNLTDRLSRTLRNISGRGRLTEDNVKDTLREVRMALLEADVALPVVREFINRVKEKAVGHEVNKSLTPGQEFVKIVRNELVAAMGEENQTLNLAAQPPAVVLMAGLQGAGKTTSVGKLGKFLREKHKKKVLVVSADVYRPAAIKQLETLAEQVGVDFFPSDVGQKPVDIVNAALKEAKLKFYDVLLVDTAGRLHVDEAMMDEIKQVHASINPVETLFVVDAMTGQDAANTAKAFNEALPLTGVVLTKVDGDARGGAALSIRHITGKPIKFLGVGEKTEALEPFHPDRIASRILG
T2 sequence (P10121 197-497, stated change not applied): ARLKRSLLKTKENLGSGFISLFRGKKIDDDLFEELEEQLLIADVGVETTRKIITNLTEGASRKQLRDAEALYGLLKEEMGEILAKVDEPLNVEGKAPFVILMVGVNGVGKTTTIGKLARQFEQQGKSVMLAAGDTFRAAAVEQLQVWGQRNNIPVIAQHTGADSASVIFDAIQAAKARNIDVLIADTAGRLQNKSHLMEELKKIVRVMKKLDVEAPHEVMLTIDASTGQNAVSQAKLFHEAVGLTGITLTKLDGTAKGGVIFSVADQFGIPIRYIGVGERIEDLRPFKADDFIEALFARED
T1 sequence (P0AGD7 whole entry, the tested form may be a part): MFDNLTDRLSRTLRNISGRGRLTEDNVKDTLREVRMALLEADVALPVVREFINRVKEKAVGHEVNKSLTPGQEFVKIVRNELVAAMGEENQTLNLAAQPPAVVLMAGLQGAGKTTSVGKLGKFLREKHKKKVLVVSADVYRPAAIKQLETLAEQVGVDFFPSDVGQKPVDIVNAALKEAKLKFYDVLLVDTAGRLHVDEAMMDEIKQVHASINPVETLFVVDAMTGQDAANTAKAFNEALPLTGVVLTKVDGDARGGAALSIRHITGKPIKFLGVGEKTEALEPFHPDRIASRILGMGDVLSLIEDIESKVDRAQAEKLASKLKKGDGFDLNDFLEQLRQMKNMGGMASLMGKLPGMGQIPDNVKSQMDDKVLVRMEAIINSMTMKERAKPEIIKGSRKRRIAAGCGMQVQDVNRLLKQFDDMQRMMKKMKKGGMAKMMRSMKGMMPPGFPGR
T1 sequence (P10121 197-497): as the sequence (P10121 197-497, stated change not applied) above

In the case of `Nc1nc2c(ncn2[C@@H]2O[C@H](COP(=O)(O)OP(=O)(O)O)[C@@H](OP(=O)(O)OP(=O)(O)O)[C@H]2O)c(=O)[nH]1` [ppGpp], the GTP hydrolysis entry in assay [1] is given as “reduction of GTP hydrolysis”. Further, the Ffh/FtsY complex formation result was “roughly abolished” on Ffh-NG/FtsY-NG complex (setting [2]) and “half-inhibited” at Ffh-NG/FtsY-NG complex (setting [3]).

Regarding `Nc1nc2c(ncn2[C@@H]2O[C@H](COP(=O)(O)OP(=O)(O)OP(=O)(O)O)[C@@H](OP(=O)(O)OP(=O)(O)O)[C@H]2O)c(=O)[nH]1` [pppGpp], the GTP hydrolysis result in assay [1] is listed as “reduction of GTP hydrolysis”. In addition, the Ffh/FtsY complex formation entry on Ffh-NG/FtsY-NG complex (setting [2]) is reported as “roughly abolished”; on Ffh-NG/FtsY-NG complex (setting [3]), “half-inhibited”.
